Results published in ChEMBL document CHEMBL4411307, “N,N'-diaryl-bishydrazones in a biphenyl platform: Broad spectrum antifungal agents” (Eur J Med Chem, 2019).
Converted amounts (≈) assume the structure as drawn. The source made the active and inactive calls. The calls are words filed in the database; no cut-off is given here.

Tests used:
[1] = Selectivity index, ratio of CC50 for human A549 cells to MIC for Candida krusei ATCC 6258; type: toxicity; conditions: read-out: Selectivity Index
[2] = Selectivity index, ratio of compound concentration showing <20 to <30% hemolysis in mouse RBC to MIC for fluconazole/ITC-resistant Candida albicans ATCC MYA-1003; type: toxicity; conditions: mouse red blood cells (RBC), read-out: Selectivity Index
[3] = Selectivity index, ratio of compound concentration showing <20 to <30% hemolysis in mouse RBC to MIC for fluconazole/ITC-resistant Candida albicans ATCC 90819; type: toxicity; conditions: red blood cells (erythrocytes), read-out: Selectivity Index
Candida albicans [4] = test: Antifungal activity against fluconazole/ITC-resistant Candida albicans ATCC MYA-1237 measured after 48 hrs by CLSI M27-A3 protocol based method; type: functional; conditions: ATCC MYA-1237, 48 h
[5] = Selectivity index, ratio of CC50 for human A549 cells to MIC for fluconazole/ITC-resistant Candida albicans ATCC 10231; type: toxicity; conditions: read-out: Selectivity Index
Candida albicans [6] = test: Antifungal activity against fluconazole/ITC-resistant Candida albicans ATCC 64124 measured after 48 hrs by CLSI M27-A3 protocol based method; type: functional; conditions: ATCC 64124, 48 h
Candida albicans [7] = test: Selectivity ratio of MIC90 for antibiofilm activity against fluconazole/ITC-resistant Candida albicans ATCC 64124 assessed as reduction in sessile growth to MIC for fluconazole/ITC-resistant Candida albicans ATCC 64124; type: functional
[8] = Selectivity index, ratio of CC50 for human A549 cells to MIC for fluconazole/ITC-susceptible Candida albicans ATCC MYA-2876; type: toxicity; conditions: read-out: Selectivity Index
Candida albicans [9] = test: Antibiofilm activity against fluconazole/ITC-resistant Candida albicans ATCC 64124 assessed as reduction in sessile growth after 24 hrs by XTT assay; type: functional; conditions: ATCC 64124, 24 h
[10] = Selectivity index, ratio of compound concentration showing <20 to <30% hemolysis in mouse RBC to MIC for fluconazole/ITC-susceptible Candida albicans ATCC MYA-2876; type: toxicity; conditions: red blood cells (erythrocytes), read-out: Selectivity Index
Candida albicans [11] = test: Selectivity ratio of MIC90 for antibiofilm activity against fluconazole/ITC-resistant Candida albicans ATCC 10231 assessed as reduction in sessile growth to MIC for fluconazole/ITC-resistant Candida albicans ATCC 10231; type: functional
Enterococcus = test: Antibacterial activity against vancomycin-resistant Enterococcus; type: functional, organism-based
A549 = test: Cytotoxicity against human A549 cells after 24 hrs by resazurin based assay; type: cell-based; conditions: a549, 24 h
[12] = Hemolytic activity in mouse RBC at […] ug/ml after 1 hr relative to control; type: ADME, cell-based, Erythrocyte; conditions: red blood cells (erythrocytes), read-out: Activity
Candida albicans [13] = test: Antibiofilm activity against fluconazole/ITC-resistant Candida albicans ATCC 10231 assessed as reduction in sessile growth after 24 hrs by XTT assay; type: functional; conditions: ATCC 10231, 24 h
Candida albicans [14] = test: Antifungal activity against fluconazole/ITC-resistant Candida albicans ATCC 90819 measured after 48 hrs by CLSI M27-A3 protocol based method; type: functional; conditions: ATCC 90819, 48 h
Candida parapsilosis = test: Antifungal activity against Candida parapsilosis ATCC 22019 measured after 48 hrs by CLSI M27-A3 protocol based method; type: functional; conditions: Lodderomyces parapsilosis, ATCC 22019, 48 h
[15] = Selectivity index, ratio of CC50 for human A549 cells to MIC for Candida glabrata ATCC 2001; type: toxicity; conditions: read-out: Selectivity Index
Aspergillus nidulans = test: Antifungal activity against Aspergillus nidulans ATCC 38163 measured after 48 hrs by CLSI M38-A2 protocol based method; type: functional; conditions: ATCC 38163, 48 h
[16] = Selectivity index, ratio of CC50 for human A549 cells to MIC for fluconazole/ITC-resistant Candida albicans ATCC 64124; type: toxicity; conditions: read-out: Selectivity Index
Pichia kudriavzevii = test: Antifungal activity against Candida krusei ATCC 6258 measured after 48 hrs by CLSI M27-A3 protocol based method; type: functional; conditions: ATCC 6258, 48 h
[17] = target: Voltage-gated inwardly rectifying potassium channel KCNH2 (Homo sapiens, UniProt Q12809); test: Inhibition of [3H]-dofetilide binding to human ERG expressed in HEK293 cell membranes measured after 1 hr by liquid scintillation counting method
Sequence of Voltage-gated inwardly rectifying potassium channel KCNH2 (Q12809 whole entry): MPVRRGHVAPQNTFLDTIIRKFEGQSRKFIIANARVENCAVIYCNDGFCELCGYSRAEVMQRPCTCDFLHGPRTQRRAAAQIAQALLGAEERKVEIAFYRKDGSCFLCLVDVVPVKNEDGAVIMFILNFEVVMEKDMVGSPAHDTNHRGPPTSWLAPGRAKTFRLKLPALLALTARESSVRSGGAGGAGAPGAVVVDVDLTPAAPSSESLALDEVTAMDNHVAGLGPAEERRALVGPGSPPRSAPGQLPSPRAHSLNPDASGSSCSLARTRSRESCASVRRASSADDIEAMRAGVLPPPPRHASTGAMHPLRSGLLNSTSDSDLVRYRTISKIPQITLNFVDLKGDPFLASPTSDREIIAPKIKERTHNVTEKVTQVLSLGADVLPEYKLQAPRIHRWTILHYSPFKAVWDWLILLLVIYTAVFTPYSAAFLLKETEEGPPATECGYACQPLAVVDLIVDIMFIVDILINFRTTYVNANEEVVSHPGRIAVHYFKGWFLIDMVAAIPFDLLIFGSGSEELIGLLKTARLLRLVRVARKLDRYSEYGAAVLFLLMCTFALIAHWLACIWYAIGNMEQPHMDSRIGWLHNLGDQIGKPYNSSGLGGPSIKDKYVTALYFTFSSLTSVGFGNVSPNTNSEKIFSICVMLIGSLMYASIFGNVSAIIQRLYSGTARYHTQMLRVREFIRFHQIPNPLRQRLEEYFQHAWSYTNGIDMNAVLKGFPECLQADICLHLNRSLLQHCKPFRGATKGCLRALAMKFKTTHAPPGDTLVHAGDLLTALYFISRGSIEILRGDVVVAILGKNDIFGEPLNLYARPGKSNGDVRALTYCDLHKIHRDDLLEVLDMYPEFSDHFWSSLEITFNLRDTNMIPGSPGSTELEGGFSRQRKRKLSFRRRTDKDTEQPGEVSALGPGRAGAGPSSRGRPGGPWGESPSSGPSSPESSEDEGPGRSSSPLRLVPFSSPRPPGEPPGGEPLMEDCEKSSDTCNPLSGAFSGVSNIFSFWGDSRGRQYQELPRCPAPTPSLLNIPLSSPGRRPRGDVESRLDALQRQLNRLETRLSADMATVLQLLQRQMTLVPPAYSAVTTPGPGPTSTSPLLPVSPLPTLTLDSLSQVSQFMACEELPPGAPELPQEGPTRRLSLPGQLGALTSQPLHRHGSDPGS

[18] = Selectivity index, ratio of CC50 for human A549 cells to MIC for Aspergillus flavus ATCC MYA-3631; type: toxicity; conditions: read-out: Selectivity Index
[19] = Selectivity index, ratio of compound concentration showing <20 to <30% hemolysis in mouse RBC to MIC for Aspergillus nidulans ATCC 38163; type: toxicity; conditions: mouse red blood cells (RBC), read-out: Selectivity Index
Aspergillus terreus = test: Antifungal activity against Aspergillus terreus ATCC MYA-3633 measured after 48 hrs by CLSI M38-A2 protocol based method; type: functional; conditions: ATCC MYA-3633, 48 h
Staphylococcus aureus = test: Antibacterial activity against methicillin-resistant Staphylococcus aureus; type: functional, organism-based
[20] = Selectivity index, ratio of CC50 for human A549 cells to MIC for Candida parapsilosis ATCC 22019; type: toxicity; conditions: read-out: Selectivity Index
[21] = Hemolytic activity in mouse RBC at […] after 1 hr relative to control; type: ADME, cell-based, Erythrocyte; conditions: red blood cells (erythrocytes), read-out: Activity; further: tested at 0.48 µg/mL
Candida albicans [22] = test: Selectivity ratio of MIC50 for antibiofilm activity against fluconazole/ITC-resistant Candida albicans ATCC 64124 assessed as reduction in sessile growth to MIC for fluconazole/ITC-resistant Candida albicans ATCC 64124; type: functional
[23] = Selectivity index, ratio of compound concentration showing <20 to <30% hemolysis in mouse RBC to MIC for fluconazole/ITC-resistant Candida albicans ATCC 64124; type: toxicity; conditions: red blood cells (erythrocytes), read-out: Selectivity Index
[24] = Hemolytic activity in mouse RBC at 7.8 ug/ml after 1 hr relative to control; type: ADME, cell-based, Erythrocyte; conditions: red blood cells (erythrocytes), read-out: Activity
[25] = Selectivity index, ratio of compound concentration showing <20 to <30% hemolysis in mouse RBC to MIC for fluconazole/ITC-susceptible Candida albicans ATCC MYA-2310; type: toxicity; conditions: mouse red blood cells (RBC), read-out: Selectivity Index
Candida albicans [26] = test: Antifungal activity against fluconazole/ITC-susceptible Candida albicans ATCC MYA-2310 measured after 48 hrs by CLSI M27-A3 protocol based method; type: functional; conditions: ATCC MYA-2310, 48 h
Listeria monocytogenes = test: Antibacterial activity against Listeria monocytogenes; type: functional, organism-based
[27] = Selectivity index, ratio of CC50 for human A549 cells to MIC for fluconazole/ITC-resistant Candida albicans ATCC 90819; type: toxicity; conditions: read-out: Selectivity Index
[28] = Selectivity index, ratio of CC50 for human A549 cells to MIC for fluconazole/ITC-resistant Candida albicans ATCC MYA-1237; type: toxicity; conditions: read-out: Selectivity Index
Candida albicans [29] = test: Antifungal activity against fluconazole/ITC-resistant Candida albicans ATCC MYA-1003 measured after 48 hrs by CLSI M27-A3 protocol based method; type: functional; conditions: ATCC MYA-1003, 48 h
[30] = Selectivity index, ratio of compound concentration showing <20 to <30% hemolysis in mouse RBC to MIC for Candida glabrata ATCC 2001; type: toxicity; conditions: mouse red blood cells (RBC), read-out: Selectivity Index

SMILES: C/C(=N\Nc1ccc(F)cc1)c1ccc(-c2ccc(/C(C)=N/Nc3ccc(F)cc3)cc2)cc1
- selectivity ratio [1]: 8.5
- selectivity ratio [2]: 1 to 32
- selectivity ratio [3]: 1 to 32
- MIC (Candida albicans [4]): 7.8 µg/mL (≈ 17.2 µM)
- selectivity ratio [5]: 8.5
- MIC (Candida albicans [6]): 3.9 µg/mL (≈ 8.58 µM)
- selectivity ratio (Candida albicans [7]): 8
- selectivity ratio [8]: 4.3
- MIC50 (Candida albicans [9]): 16 µg/mL (≈ 35.2 µM)
- MIC90 (Candida albicans [9]): > 32 µg/mL
- selectivity ratio [10]: 1 to 32
- selectivity ratio (Candida albicans [11]): 16
- Activity (Enterococcus): inactive
- CC50 (A549): 16.6 µg/mL (≈ 36.5 µM)
- hemolysis at 1 h, 15.6 ug/ml ([12]; at 15.6 µg/mL): 7.4%
- hemolysis at 1 h, 0.975 ug/ml [12]: 1.4%
- MIC50 (Candida albicans [13]): 8 µg/mL (≈ 17.6 µM)
- MIC90 (Candida albicans [13]): > 32 µg/mL
- MIC (Candida albicans [14]): 7.8 µg/mL (≈ 17.2 µM)
- MIC (Candida parapsilosis): 15.6 µg/mL (≈ 34.3 µM)
- selectivity ratio [15]: 1.1
- MIC (Aspergillus nidulans): 7.8 µg/mL (≈ 17.2 µM)
- selectivity ratio [16]: 4.3
- MIC (Pichia kudriavzevii): 1.95 µg/mL (≈ 4.29 µM)
- IC50 [17]: > 30 µM
- selectivity ratio [18]: 0.5
- selectivity ratio [19]: 1 to 32
- MIC (Aspergillus terreus): > 31.3 µg/mL
- Activity (Staphylococcus aureus): inactive
- selectivity ratio [20]: 1.1
- hemolysis at 1 h, […] [21]: 0%
- selectivity ratio (Candida albicans [22]): 4
- selectivity ratio [23]: 1 to 32
- hemolysis at 1 h, 7.8 ug/ml [24]: 5.9%
- selectivity ratio [25]: 1 to 32
- MIC (Candida albicans [26]): 1.95 µg/mL (≈ 4.29 µM)
- Activity (Listeria monocytogenes): inactive
- selectivity ratio [27]: 2.1
- selectivity ratio [28]: 2.1
- MIC (Candida albicans [29]): 7.8 µg/mL (≈ 17.2 µM)
- selectivity ratio [30]: 1 to 32
